Measured values reported in US12557811B2, “Effective and eco-friendly disinfectant” (The Hong Kong University of Science and Technology, priority 2022, dated 2026).
Where two headings read alike, the source gives them in different places.

How the values were obtained:
[1] = Degradation kinetics without solar irradiation (darkness); type: physicochemical
[2] = Degradation kinetics with solar irradiation
E. coli = assay: Disinfection experiments, membrane filter enumeration, E. coli; type: cell-based, Escherichia coli
Protocol: Disinfection experiments were performed in phosphate buffer saline (PBS; 10 mM, pH 7.2) with an initial concentration of E. coli of 10^6-10^7 colony forming units per milliliter (CFU mL^−1). Different concentrations of disinfection byproducts were added to the cell suspensions individually at room temperature (˜22° C.) with a contact time of 5 min. After the given contact time, the microorganism cells were enumerated following a membrane filter method. Briefly, serial ten-fold dilutions were conducted for the disinfected samples and the control sample without disinfection. Each diluted suspension was subjected to filtration through 0.45-μm membrane, which was then placed on a petri dish containing m-FC medium. After incubation at 45° C. for 24 hours, the colony forming units within a statistically reasonable range (20-80) were counted. The disinfection experiments were performed in duplicate. All the materials for the disinfection experiments were autoclaved at 121° C. for 15 min and cooled to room temperature before use.
(§1) The disinfection experiments were performed in PBS solutions (10 mM, pH 7.2) with an initial concentration of E. coli, S. aureus, or C. albicans of 10^6-10^7 CFU mL^−1. Different concentrations of 2,6-DCQ or PCMX were added to the cell suspensions at room temperature (˜22° C.) After the given contact time (i.e., 5 min), the microorganism cells were enumerated following a membrane filter method. Briefly, serial ten-fold dilutions were conducted for the disinfected samples and the control sample without disinfection. Each diluted suspension was filtered through a 0.45-μm filter paper, which was then placed on a petri dish. The petri dishes containing E. coli, S. aureus, and C. albicans were incubated in m-FC medium at 45° C. for 24 h, Tryptone Soya broth at 37° C. for 24 h, and Sabouraud Dextrose broth at 37° C. for 24 h, respectively. After incubation, the colony forming units within a statistically reasonable range (20-80) were counted. The disinfection experiments were performed in duplicate. All the materials for the disinfection experiments were autoclaved at 121° C. for 15 min and cooled to room temperature before use.
The disinfection experiments were performed in PBS solutions (10 mM, pH 7.2) with an initial concentration of E. coli of 10^6-10^7 CFU mL^−1. 2,5-Dichloro-1,4-benzoquinone (7.5 and 15 mg L^−1) or 2,6-DCQ (7.5 and 15 mg L^−1) was added to the cell suspensions at room temperature (˜22° C.). After the given contact time (i.e., 5 min), the microorganism cells were enumerated following a membrane filter method. Briefly, serial ten-fold dilutions were conducted for the disinfected samples and the control sample without disinfection. Each diluted suspension was subjected to filtration through 0.45-μm membrane, which was then placed on a petri dish. The petri dishes containing E. coli were incubated in m-FC medium at 45° C. for 24 hours. After incubation, the colony forming units within a statistically reasonable range (20-80) were counted. The disinfection experiments were performed in duplicate. All the materials for the disinfection experiments were autoclaved at 121° C. for 15 min and cooled to room temperature before use.
The disinfection experiments were performed in PBS solutions (10 mM, pH 7.2) with an initial concentration of E. coli of 10^6-10^7 CFU mL^−1. 2,6-DBQ (2,6-dibromo-1,4-benzoquinone), 2,6-DIQ (2,6-diiodo-1,4-benzoquinone), or 2,6-DCQ was added to the cell suspensions at room temperature (˜22° C.) with a contact time of 5 min. After the given contact time, the microorganism cells were enumerated following a membrane filter method. Briefly, serial ten-fold dilutions were conducted for the disinfected samples and the control sample without disinfection. Each diluted suspension was subjected to filtration through 0.45-μm membrane, which was then placed on a petri dish. The petri dishes containing E. coli were incubated in m-FC medium at 45° C. for 24 hours.

S. aureus = assay: Disinfection experiments, membrane filter enumeration, S. aureus; type: cell-based, Staphylococcus aureus; settings: for inactivation rate constant / Dose for achieving 3-log (99.9%) inactivation: S. aureus
Protocol: as §1

[3] = Storage stability in solid form or in an organic solvent; type: physicochemical
[4] = test system: E. coli, S. aureus and C. albicans; assay: Disinfection experiments, comparison across the three types of pathogens; type: cell-based, Escherichia coli, Staphylococcus aureus, Candida albicans
Protocol: as §1

C. albicans = assay: Disinfection experiments, membrane filter enumeration, C. albicans; type: cell-based, Candida albicans; settings: for inactivation rate constant / Dose for achieving 3-log (99.9%) inactivation: C. albicans
Protocol: as §1

P. dumerilii embryos = assay: P. dumerilii embryo developmental toxicity; type: in vivo, Platynereis dumerilii
Excerpt: The doses of 2,6-DCQ and PCMX for 3-log E. coli inactivation (pH 7.2) were set as the in-use concentrations, which were serially diluted and added to the embryos of a marine polychactc, Platynereis dumerilii, at 12-hour postfertilization. A dilution factor was defined as the ratio of the in-use concentration to the exposure concentration. Each exposure set contained a control sample (i.e., the embryos at 12-hour postfertilization developed in seawater). By 24-hour postfertilization, normally developed embryos should have reached the first larval stage. An inverted stereomicroscope (40× magnification) was used to observe the larvae. The normal development percentage was calculated as the ratio of normally developed embryos to total embryos. By plotting the curve of the normal development percentage versus the dilution factor, the EC50,DF value (i.e., the dilution factor corresponding to 50% of the normal development percentage of the control sample) was obtained using SigmaPlot 12. The developmental toxicity test was conducted in duplicate.

[5] = test system: antibiotic resistance genes; settings: environmentally relevant concentrations; cited from earlier work
rainbow trout = settings: environmentally relevant concentrations (˜4.2 μg L^−1); cited from earlier work
zebrafish embryos = settings: in vivo; cited from earlier work
[6] = pH not given, read-out: Half-life, without solar irradiation (converted)

Oc1cc(I)c(O)cc1I [2,5-Diiodohydroquinone, 2,5-diiodohydroquinone]
k, degradation, without solar irradiation ([1]; pH not given): 0.078 h⁻¹
half-life [1, 6]: 0.15 h
half-life [2]: 0.15 h
k, degradation, with solar irradiation ([2]; pH not given): 0.756 h⁻¹

O=C1C=C(Br)C(=O)C(Br)=C1 [2,6-DBQ, 2,6-dibromo-1,4-benzoquinone]
disinfection efficacy compared with 2,6-DCQ (E. coli; pH 7.2): comparable disinfection efficacy

O=C1C=C(Cl)C(=O)C(Cl)=C1 [2,6-DCQ, 2,6-dichloro-1,4-benzoquinone]
inactivation rate constant (S. aureus): 20000 µL/min/mg
Dose for achieving 3-log (99.9%) inactivation (S. aureus; pH 7.2, contact time 5 min): 29.4 mg/L
inactivation rate constant (S. aureus; pH 7.2, contact time 5 min): 20000 µL/min/mg
inactivation (S. aureus; Staphylococcus aureus ATCC 25923, contact time of 5 minutes): 99.9%
time remaining stable [3]: at least 24 months
disinfection efficacy, times higher than PCMX [4]: 10-15 times
reduction of disinfectant doses for 99.9% inactivation by switching from PCMX to 2,6-DCQ ([4]; E. coli, S. aureus and C. albicans): 89-93%
in-use doses for 99.9% inactivation, times lower than the corresponding doses of PCMX ([4]; E. coli, S. aureus and C. albicans, contact time 5 min): 10-15 times
inactivation rate constant (C. albicans): 31200 µL/min/mg
Dose for achieving 3-log (99.9%) inactivation (C. albicans; pH 7.2, contact time 5 min): 35.7 mg/L
inactivation rate constant (C. albicans; pH 7.2, contact time 5 min): 31200 µL/min/mg
inactivation (C. albicans; Candida albicans ATCC 14053, contact time of 5 minutes): 99.9%
inactivation (E. coli): 99.9%
inactivation rate constant (E. coli): 91700 µL/min/mg
dose required for 99.9% inactivation, times lower than those of the other nine disinfection byproducts (E. coli; E. coli, contact time of 5 minutes): 8.8-500 times
inactivation rate constant, times greater than those of other disinfection byproducts (E. coli; E. coli, versus the other nine disinfection byproducts): 8.8-500 times
Dose for achieving 3-log (99.9%) inactivation (E. coli; pH 7.2): 12.8 mg/L
inactivation rate constant (E. coli; pH 7.2): 91700 µL/min/mg
half-life ([1]; buffer, pH 6.2, read-out: half-life in darkness (converted)): 65.5 h
half-life ([1]; buffer, pH 7.2, read-out: half-life in darkness (converted)): 15.1 h
Half-life, without solar irradiation ([1]; pH 6.2): 65.5 h
k, degradation, without solar irradiation ([1]; pH 6.2): 0.010 h⁻¹
Half-life, without solar irradiation ([1]; pH 7.2): 15.1 h
k, degradation, without solar irradiation ([1]; pH 7.2): 0.046 h⁻¹
Half-life, without solar irradiation ([1]; pH 8.2): 1.74 h
k, degradation, without solar irradiation ([1]; pH 8.2): 0.397 h⁻¹
Half-life, with solar irradiation ([2]; pH 6.2): 4.13 h
k, degradation, with solar irradiation ([2]; pH 6.2): 0.17 h⁻¹
half-life under solar irradiation ([2]; pH 7.2): 3.20 h
k, degradation, with solar irradiation ([2]; pH 7.2): 0.22 h⁻¹
Half-life, with solar irradiation ([2]; pH 8.2): 1.33 h
k, degradation, with solar irradiation ([2]; pH 8.2): 0.52 h⁻¹
half-lives, times shorter than those of PCMX ([2]; seawater (pH 8.2), with and without solar irradiation): about 200 times
developmental toxicity, times lower than PCMX (P. dumerilii embryos; 48 hours after discharge into seawater): 31 times
developmental toxicity compared with PCMX (P. dumerilii embryos; after 2 hours of degradation in seawater): lower developmental toxicity

Oc1ccc(I)cc1I [2,4-Diiodophenol, 2,4-diiodophenol]
Half-life, with solar irradiation ([2]; pH not given): 83 h
k, degradation, with solar irradiation ([2]; pH not given): 0.0083 h⁻¹

Oc1cc(Cl)c(O)cc1Cl [2,5-Dichlorohydroquinone, 2,5-dichlorohydroquinone]
k, degradation, without solar irradiation ([1]; pH not given): 0.0922 h⁻¹
half-life [1, 6]: 0.13 h
half-life [2]: 0.11 h
k, degradation, with solar irradiation ([2]; pH not given): 0.101 h⁻¹

O=C1C=C(Cl)C(=O)C=C1Cl [2,5-DCQ, 2,5-dichloro-1,4-benzoquinone]
disinfection efficacy compared with 2,6-DCQ (E. coli; pH 7.2): comparable disinfection efficacy

para-chloro-meta-xylenol [PCMX, reference compound]
inactivation rate constant (S. aureus): 3500 µL/min/mg
Dose for achieving 3-log (99.9%) inactivation (S. aureus; pH 7.2, contact time 5 min): 312 mg/L
inactivation rate constant (S. aureus; pH 7.2, contact time 5 min): 3500 µL/min/mg
in-use doses for 99.9% inactivation, times higher than those of 2,6-DCQ ([4]; three types of pathogens, contact time 5 min): 10-15 times
inactivation rate constant (C. albicans): 3500 µL/min/mg
Dose for achieving 3-log (99.9%) inactivation (C. albicans; pH 7.2, contact time 5 min): 325 mg/L
inactivation rate constant (C. albicans; pH 7.2, contact time 5 min): 3500 µL/min/mg
inactivation rate constant (E. coli; E. coli): 11000 µL/min/mg
inactivation rate constant (E. coli; E. coli, pH 7.2, contact time 5 min): 11000 µL/min/mg
Dose for achieving 3-log (99.9%) inactivation (E. coli; pH 7.2): 188 mg/L
Half-life, without solar irradiation ([1]; pH 8.2): 5578 h
k, degradation, without solar irradiation ([1]; pH 8.2): 0.00012 h⁻¹
Half-life, without solar irradiation ([1]; seawater pH (pH 8.2)): ~5760 h
effect on antibiotic resistance genes [5]: promote the spread of antibiotic resistance genes
effects of chronic exposure in rainbow trout (rainbow trout): gene regulation and morphological changes
Half-life, with solar irradiation ([2]; pH 8.2): 257 h
k, degradation, with solar irradiation ([2]; pH 8.2): 0.0027 h⁻¹
half-life under solar irradiation ([2]; pH 8.2, seawater pH): 257 h
adverse effects in zebrafish embryos (zebrafish embryos): mortality, morphological malformations, and neurotoxicity

Oc1ccc(Br)cc1Br [2,4-Dibromophenol, 2,4-dibromophenol]
half-life [2]: 35 h
k, degradation, with solar irradiation ([2]; pH not given): 0.0201 h⁻¹

O=C1C=C(I)C(=O)C(I)=C1 [2,6-DIQ, 2,6-diiodo-1,4-benzoquinone]
disinfection efficacy compared with 2,6-DCQ (E. coli; pH 7.2): comparable disinfection efficacy

Oc1ccc(Cl)cc1Cl [2,4-Dichlorophenol, 2,4-dichlorophenol]
half-life (physchem): 44 h
k, degradation, with solar irradiation ([2]; pH not given): 0.0157 h⁻¹

Oc1cc(Br)c(O)cc1Br [2,5-Dibromohydroquinone, 2,5-dibromohydroquinone]
k, degradation, without solar irradiation ([1]; pH not given): 0.0767 h⁻¹
half-life [1, 6]: 0.15 h
half-life [2]: 0.15 h
k, degradation, with solar irradiation ([2]; pH not given): 0.787 h⁻¹
